# Data: article PMC3805332, “Synthesis of α-Glucan in Mycobacteria Involves a Hetero-octameric Complex of Trehalose Synthase TreS and Maltokinase Pep2” (ACS Chemical Biology, 2013)
# What was measured:
# [1] = molecular target: TreS (trehalose synthase) (Mycobacterium tuberculosis, UniProt P9WQ19)
# [2] = molecular target: T1, M. smegmatis TreS (Mycolicibacterium smegmatis, UniProt A0R6E0); experiment: hexokinase/pyruvate kinase/lactate dehydrogenase coupled NADH fluorescence; type: biochemical; conditions: hydrolysis to glucose; HEPES-NaOH pH 7.5, 1 mM MgCl2, trehalose 0-25 mM, TreS 0.4 μM
# T1 construct: preparation of M. smegmatis TreS not described in main text
# T1 sequence (A0R6E0 1-593): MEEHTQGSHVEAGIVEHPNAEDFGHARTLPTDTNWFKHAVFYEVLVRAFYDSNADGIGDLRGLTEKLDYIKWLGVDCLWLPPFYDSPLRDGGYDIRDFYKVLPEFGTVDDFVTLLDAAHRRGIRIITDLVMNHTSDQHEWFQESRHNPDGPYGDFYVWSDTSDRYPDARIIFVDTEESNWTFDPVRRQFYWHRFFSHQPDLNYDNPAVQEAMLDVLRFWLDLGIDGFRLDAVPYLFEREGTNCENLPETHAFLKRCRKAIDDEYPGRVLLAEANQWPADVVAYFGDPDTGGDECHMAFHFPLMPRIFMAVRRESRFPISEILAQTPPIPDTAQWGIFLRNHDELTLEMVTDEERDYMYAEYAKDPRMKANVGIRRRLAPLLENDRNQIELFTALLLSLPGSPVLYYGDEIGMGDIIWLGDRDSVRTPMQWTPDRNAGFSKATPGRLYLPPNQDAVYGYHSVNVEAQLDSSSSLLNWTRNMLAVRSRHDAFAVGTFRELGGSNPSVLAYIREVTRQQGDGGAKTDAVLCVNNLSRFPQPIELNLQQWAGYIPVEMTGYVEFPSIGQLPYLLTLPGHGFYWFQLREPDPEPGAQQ
# TreS (trehalose synthase), sequence (P9WQ19 whole entry): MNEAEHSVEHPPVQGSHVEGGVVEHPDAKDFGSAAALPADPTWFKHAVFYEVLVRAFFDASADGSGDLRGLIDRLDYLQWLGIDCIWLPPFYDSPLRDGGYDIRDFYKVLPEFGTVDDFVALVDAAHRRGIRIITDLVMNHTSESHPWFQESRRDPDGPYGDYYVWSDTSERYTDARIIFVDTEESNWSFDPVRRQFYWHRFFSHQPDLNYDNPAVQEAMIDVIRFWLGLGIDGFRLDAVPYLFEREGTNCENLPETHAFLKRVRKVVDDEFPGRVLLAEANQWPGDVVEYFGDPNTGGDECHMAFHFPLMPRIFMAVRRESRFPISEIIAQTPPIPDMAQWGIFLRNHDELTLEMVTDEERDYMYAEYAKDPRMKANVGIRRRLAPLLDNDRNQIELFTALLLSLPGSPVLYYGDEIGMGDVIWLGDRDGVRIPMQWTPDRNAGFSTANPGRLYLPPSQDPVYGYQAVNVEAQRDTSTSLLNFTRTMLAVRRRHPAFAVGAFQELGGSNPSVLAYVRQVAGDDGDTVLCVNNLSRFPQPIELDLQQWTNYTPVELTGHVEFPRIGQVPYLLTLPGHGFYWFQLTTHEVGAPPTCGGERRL
smiles,measurement,setting,value
OC[C@H]1O[C@H](O[C@H]2[C@H](O)[C@@H](O)C(O)O[C@@H]2CO)[C@H](O)[C@@H](O)[C@@H]1O (stereo partly drawn) [maltose],end-point thin layer chromatography,[1],Incubation of TreS with trehalose or maltose interconverted the substrates
OC[C@H]1O[C@H](O[C@H]2O[C@H](CO)[C@@H](O)[C@H](O)[C@H]2O)[C@H](O)[C@@H](O)[C@@H]1O [trehalose],hexokinase/pyruvate kinase/lactate dehydrogenase coupled NADH fluorescence,[2],we monitored M. smegmatis TreS-catalyzed conversion of trehalose to glucose in an enzyme-coupled continuous assay
same,end-point thin layer chromatography,[1],Incubation of TreS with trehalose or maltose interconverted the substrates
